ChEMBL document CHEMBL2202982, “Synthesis and SAR development of novel mGluR1 antagonists for the treatment of chronic pain” (Bioorg Med Chem Lett, 2012)

Experiment: in vivo
Details: rat, po

SMILES	AUC(0-t) at 6 h [µM·h]
Cc1ccc(-n2cnc3c(sc4ncnc(NC5CC5)c43)c2=O)cc1	0.89
COc1ccc(-n2cnc3c(sc4ncnc(NC5CC5)c43)c2=O)cc1F	8.6
